Measurements taken from the kinase profiling compilation of Christmann-Franck et al. (2016).

Tests used:
Test in all cases: KINOMEscan competition binding
Details in all cases: compound 10.0 µM
[1] = target: ACVR1 (human) (UniProt Q04771)
[2] = target: CAMKK1 (human) (UniProt Q8N5S9)
[3] = target: CAMKK2 (human) (UniProt Q96RR4)
[4] = target: CLK3 (human) (UniProt P49761)
[5] = target: CSNK1D (human) (UniProt P48730)
[6] = target: CSNK1G1 (human) (UniProt Q9HCP0)
[7] = target: CSNK1G3 (human) (UniProt Q9Y6M4)
[8] = target: DAPK2 (human) (UniProt Q9UIK4)
[9] = target: DYRK1B (human) (UniProt Q9Y463)
[10] = system: EGFR (human), P00533 [G719S]
[11] = target: FLT3 (human) (UniProt P36888)
[12] = system: FLT3 (human), P36888 [D835H]
[13] = target: HIPK1 (human) (UniProt Q86Z02)
[14] = target: JAK1 JH2 pseudokinase (human) (UniProt P23458)
[15] = target: JAK3 JH1 catalytic (human) (UniProt P52333)
[16] = target: KIT (human) (UniProt P10721)
[17] = system: KIT (human), P10721 [D816V]
[18] = system: KIT (human), P10721 [V559D/T670I]
[19] = target: MAP2K3 (human) (UniProt P46734)
[20] = target: MAP3K5 (human) (UniProt Q99683)
[21] = target: MAP4K2 (human) (UniProt Q12851)
[22] = target: MAP4K4 (human) (UniProt O95819)
[23] = target: MELK (human) (UniProt Q14680)
[24] = target: MKNK1 (human) (UniProt Q9BUB5)
[25] = target: MYLK (human) (UniProt Q15746)
[26] = target: MYLK3 (human) (UniProt Q32MK0)
[27] = target: MYLK4 (human) (UniProt Q86YV6)
[28] = target: NEK2 (human) (UniProt P51955)
[29] = target: PDGFRB (human) (UniProt P09619)
[30] = target: PIM1 (human) (UniProt P11309)
[31] = target: PIM2 (human) (UniProt Q9P1W9)
[32] = target: PIP5K1A (human) (UniProt Q99755)
[33] = target: PLK4 (human) (UniProt O00444)
[34] = target: RIOK2 (human) (UniProt Q9BVS4)
[35] = target: RIPK2 (human) (UniProt O43353)
[36] = target: RIPK4 (human) (UniProt P57078)
[37] = target: RPS6KA6 KD2 (human) (UniProt Q9UK32)
[38] = target: STK16 (human) (UniProt O75716)
[39] = target: STK17A (human) (UniProt Q9UEE5)
[40] = target: STK17B (human) (UniProt O94768)
[41] = target: TTK (human) (UniProt P33981)
[42] = target: ULK2 (human) (UniProt Q8IYT8)

Sequence of DYRK1B (human) (Q9Y463 whole entry, looked up): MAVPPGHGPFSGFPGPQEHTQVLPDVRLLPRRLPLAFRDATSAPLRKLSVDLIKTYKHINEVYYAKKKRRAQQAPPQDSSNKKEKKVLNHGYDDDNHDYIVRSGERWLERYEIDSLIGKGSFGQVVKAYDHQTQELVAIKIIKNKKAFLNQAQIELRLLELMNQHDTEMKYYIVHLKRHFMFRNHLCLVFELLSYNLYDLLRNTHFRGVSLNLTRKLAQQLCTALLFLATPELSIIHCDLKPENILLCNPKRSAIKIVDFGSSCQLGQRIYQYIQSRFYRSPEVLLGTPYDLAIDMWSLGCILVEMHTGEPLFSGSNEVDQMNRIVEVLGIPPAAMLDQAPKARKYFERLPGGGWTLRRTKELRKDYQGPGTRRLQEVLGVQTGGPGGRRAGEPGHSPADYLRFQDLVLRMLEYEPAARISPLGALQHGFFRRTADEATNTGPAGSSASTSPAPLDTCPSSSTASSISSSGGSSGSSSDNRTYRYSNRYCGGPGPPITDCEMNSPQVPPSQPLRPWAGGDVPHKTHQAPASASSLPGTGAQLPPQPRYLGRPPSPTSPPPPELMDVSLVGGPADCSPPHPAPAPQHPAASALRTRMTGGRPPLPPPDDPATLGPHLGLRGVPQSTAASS
Sequence of MKNK1 (human) (Q9BUB5 whole entry, looked up): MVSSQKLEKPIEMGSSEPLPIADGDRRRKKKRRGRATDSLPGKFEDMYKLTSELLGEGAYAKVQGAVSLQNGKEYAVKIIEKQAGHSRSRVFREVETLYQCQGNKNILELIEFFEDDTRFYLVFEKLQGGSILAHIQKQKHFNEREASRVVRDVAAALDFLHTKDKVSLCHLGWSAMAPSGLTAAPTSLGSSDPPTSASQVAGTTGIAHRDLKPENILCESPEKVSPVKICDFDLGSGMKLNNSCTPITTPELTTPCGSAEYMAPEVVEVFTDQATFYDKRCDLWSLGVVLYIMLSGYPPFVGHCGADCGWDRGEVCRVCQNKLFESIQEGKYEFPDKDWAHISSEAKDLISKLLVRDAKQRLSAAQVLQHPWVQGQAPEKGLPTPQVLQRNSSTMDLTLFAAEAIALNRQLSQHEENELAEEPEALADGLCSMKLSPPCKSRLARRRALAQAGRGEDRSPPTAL
Sequence of RPS6KA6 KD2 (human) (Q9UK32 whole entry, looked up): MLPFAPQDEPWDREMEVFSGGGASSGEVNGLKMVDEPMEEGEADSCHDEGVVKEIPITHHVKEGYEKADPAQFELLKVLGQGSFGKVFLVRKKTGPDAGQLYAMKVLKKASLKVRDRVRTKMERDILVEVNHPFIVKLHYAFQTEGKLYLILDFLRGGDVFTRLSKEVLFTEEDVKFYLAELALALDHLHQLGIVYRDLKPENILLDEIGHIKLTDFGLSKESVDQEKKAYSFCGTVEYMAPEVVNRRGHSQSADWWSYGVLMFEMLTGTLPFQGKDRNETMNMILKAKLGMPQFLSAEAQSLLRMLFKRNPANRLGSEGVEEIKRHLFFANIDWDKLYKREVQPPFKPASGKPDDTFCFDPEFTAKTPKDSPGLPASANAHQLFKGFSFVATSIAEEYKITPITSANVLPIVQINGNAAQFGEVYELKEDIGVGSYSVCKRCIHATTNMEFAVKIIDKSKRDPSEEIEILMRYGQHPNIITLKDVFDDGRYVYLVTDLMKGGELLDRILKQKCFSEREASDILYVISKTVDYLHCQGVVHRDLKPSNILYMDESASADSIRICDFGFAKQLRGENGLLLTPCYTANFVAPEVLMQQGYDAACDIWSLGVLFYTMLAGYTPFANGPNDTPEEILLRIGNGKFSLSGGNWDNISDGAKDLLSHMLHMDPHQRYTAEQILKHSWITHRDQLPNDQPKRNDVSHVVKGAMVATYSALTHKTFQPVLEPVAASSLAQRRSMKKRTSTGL
Sequence of RIOK2 (human) (Q9BVS4 whole entry, looked up): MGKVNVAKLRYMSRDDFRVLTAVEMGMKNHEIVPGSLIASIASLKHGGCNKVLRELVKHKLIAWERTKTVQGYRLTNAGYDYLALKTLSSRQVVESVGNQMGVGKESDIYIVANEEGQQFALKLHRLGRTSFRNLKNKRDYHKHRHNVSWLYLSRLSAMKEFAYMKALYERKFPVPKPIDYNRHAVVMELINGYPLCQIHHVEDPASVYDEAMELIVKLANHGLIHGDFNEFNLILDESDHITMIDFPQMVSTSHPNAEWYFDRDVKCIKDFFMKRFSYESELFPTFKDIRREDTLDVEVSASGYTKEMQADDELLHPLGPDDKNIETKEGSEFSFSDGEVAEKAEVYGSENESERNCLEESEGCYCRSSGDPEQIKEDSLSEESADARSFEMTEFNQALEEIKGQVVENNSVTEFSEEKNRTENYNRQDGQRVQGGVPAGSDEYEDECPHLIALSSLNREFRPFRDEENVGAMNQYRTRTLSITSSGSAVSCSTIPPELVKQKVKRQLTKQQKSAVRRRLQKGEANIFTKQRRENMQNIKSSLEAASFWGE
Sequence of PIM2 (human) (Q9P1W9 whole entry, looked up): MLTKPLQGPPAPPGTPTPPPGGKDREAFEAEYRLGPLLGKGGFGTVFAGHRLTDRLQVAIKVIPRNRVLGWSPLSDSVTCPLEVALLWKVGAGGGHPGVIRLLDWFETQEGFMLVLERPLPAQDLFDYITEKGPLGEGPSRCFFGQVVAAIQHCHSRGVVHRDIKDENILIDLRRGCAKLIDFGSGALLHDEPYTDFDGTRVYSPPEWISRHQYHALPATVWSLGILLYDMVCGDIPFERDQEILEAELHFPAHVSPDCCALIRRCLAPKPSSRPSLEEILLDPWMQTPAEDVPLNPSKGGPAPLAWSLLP
Sequence of MYLK3 (human) (Q32MK0 whole entry, looked up): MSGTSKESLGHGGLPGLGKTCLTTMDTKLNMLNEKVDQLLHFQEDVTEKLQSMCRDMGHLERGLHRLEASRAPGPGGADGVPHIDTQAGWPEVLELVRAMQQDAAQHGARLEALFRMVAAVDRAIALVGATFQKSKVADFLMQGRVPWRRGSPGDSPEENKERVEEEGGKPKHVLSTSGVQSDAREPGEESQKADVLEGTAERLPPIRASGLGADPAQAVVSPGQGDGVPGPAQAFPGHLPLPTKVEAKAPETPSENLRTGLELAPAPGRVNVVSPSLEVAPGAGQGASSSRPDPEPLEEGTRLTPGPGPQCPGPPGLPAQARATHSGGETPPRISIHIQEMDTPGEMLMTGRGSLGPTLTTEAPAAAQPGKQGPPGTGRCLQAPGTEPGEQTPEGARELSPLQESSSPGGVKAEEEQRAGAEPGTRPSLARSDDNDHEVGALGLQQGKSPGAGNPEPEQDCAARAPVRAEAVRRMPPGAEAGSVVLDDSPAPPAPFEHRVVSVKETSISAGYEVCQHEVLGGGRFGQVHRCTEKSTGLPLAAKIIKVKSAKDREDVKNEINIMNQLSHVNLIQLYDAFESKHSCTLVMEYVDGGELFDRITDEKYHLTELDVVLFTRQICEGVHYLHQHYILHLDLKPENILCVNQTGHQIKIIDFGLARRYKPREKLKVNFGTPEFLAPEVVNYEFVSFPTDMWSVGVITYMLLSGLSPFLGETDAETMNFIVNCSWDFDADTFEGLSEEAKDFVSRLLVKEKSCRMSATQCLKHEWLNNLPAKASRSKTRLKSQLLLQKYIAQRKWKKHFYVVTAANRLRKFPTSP
Sequence of HIPK1 (human) (Q86Z02 whole entry, looked up): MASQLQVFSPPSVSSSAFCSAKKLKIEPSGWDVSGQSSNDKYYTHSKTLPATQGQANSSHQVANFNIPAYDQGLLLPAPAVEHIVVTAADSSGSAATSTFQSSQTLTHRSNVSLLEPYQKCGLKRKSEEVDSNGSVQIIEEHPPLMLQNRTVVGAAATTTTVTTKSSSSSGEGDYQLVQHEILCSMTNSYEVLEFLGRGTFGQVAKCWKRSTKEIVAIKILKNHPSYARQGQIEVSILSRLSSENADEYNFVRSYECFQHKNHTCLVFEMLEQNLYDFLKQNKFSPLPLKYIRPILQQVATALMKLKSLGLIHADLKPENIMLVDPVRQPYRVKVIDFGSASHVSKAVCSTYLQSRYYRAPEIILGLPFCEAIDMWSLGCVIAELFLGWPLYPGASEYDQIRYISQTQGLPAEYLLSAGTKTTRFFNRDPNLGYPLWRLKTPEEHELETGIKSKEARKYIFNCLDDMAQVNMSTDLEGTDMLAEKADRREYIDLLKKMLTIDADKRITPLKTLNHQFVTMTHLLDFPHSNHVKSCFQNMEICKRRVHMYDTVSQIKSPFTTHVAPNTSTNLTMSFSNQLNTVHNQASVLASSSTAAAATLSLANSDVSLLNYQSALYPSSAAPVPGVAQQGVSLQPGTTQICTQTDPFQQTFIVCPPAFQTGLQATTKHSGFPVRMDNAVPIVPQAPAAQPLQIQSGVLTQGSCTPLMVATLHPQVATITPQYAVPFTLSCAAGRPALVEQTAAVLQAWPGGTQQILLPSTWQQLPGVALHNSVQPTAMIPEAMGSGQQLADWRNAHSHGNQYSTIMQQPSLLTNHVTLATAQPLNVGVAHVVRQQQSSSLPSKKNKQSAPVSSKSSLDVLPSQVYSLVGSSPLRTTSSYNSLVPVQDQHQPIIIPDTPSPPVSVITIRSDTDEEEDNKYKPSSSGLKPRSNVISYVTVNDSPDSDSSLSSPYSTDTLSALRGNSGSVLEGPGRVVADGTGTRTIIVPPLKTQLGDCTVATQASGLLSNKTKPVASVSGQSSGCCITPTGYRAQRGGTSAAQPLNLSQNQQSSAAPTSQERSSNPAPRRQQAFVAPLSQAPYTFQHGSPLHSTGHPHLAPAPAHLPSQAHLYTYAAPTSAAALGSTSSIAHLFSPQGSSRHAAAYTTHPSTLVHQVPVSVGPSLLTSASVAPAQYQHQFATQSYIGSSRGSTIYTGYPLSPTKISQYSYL
Sequence of STK16 (human) (O75716 whole entry, looked up): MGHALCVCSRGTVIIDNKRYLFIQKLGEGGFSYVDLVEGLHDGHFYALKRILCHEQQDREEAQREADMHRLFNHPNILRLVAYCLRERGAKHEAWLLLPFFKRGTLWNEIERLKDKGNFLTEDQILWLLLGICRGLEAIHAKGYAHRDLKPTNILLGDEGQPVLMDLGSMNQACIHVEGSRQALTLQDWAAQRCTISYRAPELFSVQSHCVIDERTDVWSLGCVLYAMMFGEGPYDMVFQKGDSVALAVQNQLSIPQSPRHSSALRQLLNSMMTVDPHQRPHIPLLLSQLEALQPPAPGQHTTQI

COc1cc(N2CCN(C)CC2)ccc1Nc1ncc2c(n1)Nc1ccccc1NC2=O
kinase still bound, per cent of control [1]: 37% | kinase still bound, per cent of control [2]: 40% | kinase still bound, per cent of control [3]: 100% | kinase still bound, per cent of control [4]: 100% | kinase still bound, per cent of control [5]: 42% | kinase still bound, per cent of control [6]: 100% | kinase still bound, per cent of control [7]: 96% | kinase still bound, per cent of control [8]: 95% | kinase still bound, per cent of control [9]: 79% | kinase still bound, per cent of control [10]: 48% | kinase still bound, per cent of control [11]: 69% | kinase still bound, per cent of control [12]: 20% | kinase still bound, per cent of control [13]: 45% | kinase still bound, per cent of control [14]: 32% | kinase still bound, per cent of control [15]: 92% | kinase still bound, per cent of control [16]: 48% | kinase still bound, per cent of control [17]: 46% | kinase still bound, per cent of control [18]: 59% | kinase still bound, per cent of control [19]: 88% | kinase still bound, per cent of control [20]: 100% | kinase still bound, per cent of control [21]: 6.3% | kinase still bound, per cent of control [22]: 86% | kinase still bound, per cent of control [23]: 64% | kinase still bound, per cent of control [24]: 100% | kinase still bound, per cent of control [25]: 100% | kinase still bound, per cent of control [26]: 100% | kinase still bound, per cent of control [27]: 100% | kinase still bound, per cent of control [28]: 84% | kinase still bound, per cent of control [29]: 13% | kinase still bound, per cent of control [30]: 46% | kinase still bound, per cent of control [31]: 100% | kinase still bound, per cent of control [32]: 47% | kinase still bound, per cent of control [33]: 2.1% | kinase still bound, per cent of control [34]: 43% | kinase still bound, per cent of control [35]: 100% | kinase still bound, per cent of control [36]: 100% | kinase still bound, per cent of control [37]: 29% | kinase still bound, per cent of control [38]: 100% | kinase still bound, per cent of control [39]: 62% | kinase still bound, per cent of control [40]: 93% | kinase still bound, per cent of control [41]: 86% | kinase still bound, per cent of control [42]: 75%

COc1cc(N2CCN(C)CC2)ccc1Nc1ncc2c(n1)N(C)c1sccc1C(=O)N2C
kinase still bound, per cent of control [1]: 94% | kinase still bound, per cent of control [2]: 57% | kinase still bound, per cent of control [3]: 34% | kinase still bound, per cent of control [4]: 93% | kinase still bound, per cent of control [5]: 81% | kinase still bound, per cent of control [6]: 89% | kinase still bound, per cent of control [7]: 82% | kinase still bound, per cent of control [8]: 50% | kinase still bound, per cent of control [9]: 63% | kinase still bound, per cent of control [10]: 72% | kinase still bound, per cent of control [11]: 99% | kinase still bound, per cent of control [12]: 80% | kinase still bound, per cent of control [13]: 67% | kinase still bound, per cent of control [14]: 78% | kinase still bound, per cent of control [15]: 100% | kinase still bound, per cent of control [16]: 66% | kinase still bound, per cent of control [17]: 100% | kinase still bound, per cent of control [18]: 82% | kinase still bound, per cent of control [19]: 39% | kinase still bound, per cent of control [20]: 74% | kinase still bound, per cent of control [21]: 96% | kinase still bound, per cent of control [22]: 99% | kinase still bound, per cent of control [23]: 70% | kinase still bound, per cent of control [24]: 77% | kinase still bound, per cent of control [25]: 17% | kinase still bound, per cent of control [26]: 86% | kinase still bound, per cent of control [27]: 100% | kinase still bound, per cent of control [28]: 83% | kinase still bound, per cent of control [29]: 51% | kinase still bound, per cent of control [30]: 66% | kinase still bound, per cent of control [31]: 86% | kinase still bound, per cent of control [32]: 65% | kinase still bound, per cent of control [33]: 9.9% | kinase still bound, per cent of control [34]: 100% | kinase still bound, per cent of control [35]: 92% | kinase still bound, per cent of control [36]: 95% | kinase still bound, per cent of control [37]: 6% | kinase still bound, per cent of control [38]: 81% | kinase still bound, per cent of control [39]: 96% | kinase still bound, per cent of control [40]: 100% | kinase still bound, per cent of control [41]: 13% | kinase still bound, per cent of control [42]: 1.2%
